Test results taken from patent publication US4343812A, “Antidepressant 2-amino-and-2-(substituted amino)-cis-hexahydro-carbazoles, compositions and use” (E. I. Du Pont de Nemours and Company, priority 1980, dated 1982).
Structures can show the parent of a compound that is named as a salt. Where two headings read alike, the source gives them in different places.

Legend:
[1] = prior art; cited from earlier work
dogs = conditions: prior art; cited from earlier work
[2] = prior art; cited from earlier work; remark: listed apart in the source
[3] = system: tetrabenazine-induced sedation and depression in mice; experiment: Antagonism of tetrabenazine-induced depression in mice (prevention of ptosis and exploratory loss), orally at 1 hour post-drug; assay type: in vivo, mice (Carworth CF1 S female); conditions: Mus musculus, oral, tetrabenazine 32 mg/kg intraperitoneally 30 minutes after drug
Procedure: (Everett, "The Dopa Response Potentiation Test and Its Use in Screening for Antidepressant Drugs", pp. 164-167 in "Antidepressant Drugs" [Proceedings of the First International Symposium], S. Garattini and M. N. G. Dukes, eds., 1967). Groups of 10 Carworth CF1 S female mice, 18-21 g each, were fasted 1.5 hours and were intubated with antagonist compounds at oral doses of 0, 5, 25, and 125 mg/kg or 0, 1, 3, 9, 27, and 81 mg/kg in 0.20 ml of 1% Methocel (methylcellulose). The mice were challenged 30 minutes later with tetrabenazine (as the methane-sulfonate), 32 mg/kg intraperitoneally (dissolved in 0.20 ml 0.05 M KCl at pH 2.0). One hour after antagonist (30 minutes after tetrabenazine), the mice were examined for signs of exploratory activity and ptosis (eyelid closure). Normal exploratory activity (relief from sedation) was recorded when a mouse lifted by the tail from a group of 10 in a testing box and placed on a stainless steel testing box lid (12.5"×8" with 0.33" mesh) either turned its head horizontally 30° in both directions or moved to the edge of the screen within 10 seconds after being placed on the screen. Relief from ptosis was recorded when exactly two seconds after placing the mouse facing the observer, lid closure was less than 50% in both eyes. For comparison, the marketed antidepressant amitriptylene was also tested, and an ED50 (effective dose in 50% of the cases) was determined. The lower the ED50, the better the antidepressant.

[4] = read-out: ED50 For Prevention of Exploratory Loss
[5] = read-out: ED50 For Prevention of Ptosis

SMILES	analgetic and psychotropic activity [1]	cardiotonic effects (dogs)	antidepressant activity [2]	ED50 [3, 4] [mg/kg]	ED50 [3, 5] [mg/kg]
CN(C)C1CCc2[nH]c3ccccc3c2C1 (stereo not drawn)	analgetic and psychotropic activity	–	–	–	–
CN(C)C1CCc2[nH]c3cc(O)ccc3c2C1 (stereo not drawn)	–	cardiotonic effects	–	–	–
CNCCCC1CN(c2ccccc2)c2ccccc21 (stereo not drawn)	–	–	antidepressant activity	–	–
CCCCCOc1ccc2c(c1)N[C@@H]1CC(NC(C)=O)CC[C@H]21 (stereo partly drawn) [Compound 1L]	–	–	–	2	2
CC(=O)NC1CC[C@@H]2c3ccccc3N[C@@H]2C1 (stereo partly drawn) [Compound 1a, N-(cis-1,3,4,4a,9,9a-hexahydro-2H-carbazol-2-yl)acetamide hydrochloride]	–	–	–	2.3	0.7
CC(=O)NC1CC[C@@H]2c3cc(F)ccc3N[C@@H]2C1 (stereo partly drawn) [Compound 1b]	–	–	–	4.2	2.7
CC(=O)NC1CC[C@@H]2c3cc(Cl)ccc3N[C@@H]2C1 (stereo partly drawn) [Compound 1c]	–	–	–	14	3.3
CC(=O)NC1CC[C@@H]2c3cc(Br)ccc3N[C@@H]2C1 (stereo partly drawn) [Compound 1d]	–	–	–	3.3	2.1
CC(=O)NC1CC[C@@H]2c3cc(C)ccc3N[C@@H]2C1 (stereo partly drawn) [Compound 1e]	–	–	–	34	16
COc1ccc2c(c1)[C@H]1CCC(NC(C)=O)C[C@H]1N2 (stereo partly drawn) [Compound 1f]	–	–	–	27	27
CC(=O)NC1CC[C@@H]2c3ccc(O)cc3N[C@@H]2C1 (stereo partly drawn) [Compound 1g]	–	–	–	15.6	8.1
COc1ccc2c(c1)NC1CC(NC(C)=O)CCC21 (stereo not drawn) [Compound 1h]	–	–	–	4.2	2.2
CCOc1ccc2c(c1)N[C@@H]1CC(NC(C)=O)CC[C@H]21 (stereo partly drawn) [Compound 1i]	–	–	–	12.7	8.9
CCCOc1ccc2c(c1)N[C@@H]1CC(NC(C)=O)CC[C@H]21 (stereo partly drawn) [Compound 1j]	–	–	–	0.99	0.79
CCCCOc1ccc2c(c1)N[C@@H]1CC(NC(C)=O)CC[C@H]21 (stereo partly drawn) [Compound 1k]	–	–	–	0.35	0.22
CCCCCCOc1ccc2c(c1)N[C@@H]1CC(NC(C)=O)CC[C@H]21 (stereo partly drawn) [Compound 1m]	–	–	–	27	27
CC(=O)NC1CCC2c3ccc(OCc4ccccc4)cc3NC2C1 (stereo not drawn) [Compound 1n]	–	–	–	7.2	6.5
CC(=O)NC1CC[C@@H]2c3ccccc3N(C)[C@@H]2C1 (stereo partly drawn) [Compound 1o, N -(cis-1,3,4,4a,9,9a-hexahydro-9-methyl-2H-carbazol-2-yl)acetamide]	–	–	–	27	3.7
O=CNC1CCC2c3ccccc3NC2C1 (stereo not drawn) [Compound 1p]	–	–	–	21	21

SMILES	analgetic and psychotropic activity [1]	cardiotonic effects (dogs)	antidepressant activity [2]	ED50 [3, 4] [mg/kg]	ED50 [3, 5] [mg/kg]
CCC(=O)NC1CCC2c3ccccc3NC2C1 (stereo not drawn) [Compound 1q]	–	–	–	18	1.7
CCCCC(=O)NC1CCC2c3ccccc3NC2C1 (stereo not drawn) [Compound 1r]	–	–	–	7.5	6.5
CCOC(=O)NC1CCC2c3ccccc3NC2C1 (stereo not drawn) [Compound 1s]	–	–	–	4	4
COC(=O)NC1CCC2c3ccccc3NC2C1 (stereo not drawn) [Compound 1t]	–	–	–	9.7	5.2
NC1CCC2c3ccccc3NC2C1 (stereo not drawn) [Compound 1u]	–	–	–	0.75	0.57
CNC1CCC2c3ccccc3NC2C1 (stereo not drawn) [Compound 1v]	–	–	–	3	2.4
CCNC1CCC2c3ccccc3NC2C1 (stereo not drawn) [Compound 1w]	–	–	–	96	68
CN(C)C1CCC2c3ccccc3NC2C1 (stereo not drawn) [Compound 1x]	–	–	–	41	37
CCN1c2ccccc2[C@H]2CCC(NC(C)=O)C[C@H]21 (stereo partly drawn) [Compound 1y, N-(cis-9-ethyl-1,3,4,4a,9,9a-hexahydro-2H-carbazol-2-yl) acetamide]	–	–	–	5.2	4.7
CCOc1ccc2c3c([nH]c2c1)CC(NC(C)=O)CC3 (stereo not drawn) [Compound 2L, N-(7-ethoxy-1,3,4,9-tetrahydro-2H-carbazol-2-yl)acetamide]	–	–	–	2	2
CC(=O)NC1CCc2c([nH]c3ccccc23)C1 (stereo not drawn) [Compound 2a, N-(1,3,4,9-tetrahydro-2H-carbazol-2-yl)acetamide]	–	–	–	2.4	1.1
CC(=O)NC1CCc2c([nH]c3ccc(F)cc23)C1 (stereo not drawn) [Compound 2b, N-(6-fluoro-1,3,4,9-tetrahydro-2H-carbazol-2-yl)acetamide]	–	–	–	2.4	0.7
CC(=O)NC1CCc2c([nH]c3ccc(Cl)cc23)C1 (stereo not drawn) [Compound 2c]	–	–	–	6.5	2.4
CC(=O)NC1CCc2c([nH]c3ccc(Br)cc23)C1 (stereo not drawn) [Compound 2d, N-(6-bromo-1,3,4,9-tetrahydro-2H-carbazol-2-yl)acetamide]	–	–	–	17.4	10
CC(=O)NC1CCc2c([nH]c3c(F)cccc23)C1 (stereo not drawn) [Compound 2e]	–	–	–	19.7	14
CC(=O)NC1CCc2c([nH]c3cc(Cl)cc(Cl)c23)C1 (stereo not drawn) [Compound 2f]	–	–	–	4.7	3.3
CC(=O)NC1CCc2c([nH]c3ccc(C)cc23)C1 (stereo not drawn) [Compound 2g]	–	–	–	7.2	3
COc1ccc2[nH]c3c(c2c1)CCC(NC(C)=O)C3 (stereo not drawn) [Compound 2h, N-(1,3,4,9-tetrahydro-6-methoxy-2H-carbazol-2-yl)acetamide]	–	–	–	6.5	5.8
COc1ccc2c3c([nH]c2c1)CC(NC(C)=O)CC3 (stereo not drawn) [Compound 2i, N-(1,3,4,9-tetrahydro-7-methoxy-2H-carbazol-2-yl)acetamide]	–	–	–	0.9	0.8

SMILES	analgetic and psychotropic activity [1]	cardiotonic effects (dogs)	antidepressant activity [2]	ED50 [3, 4] [mg/kg]	ED50 [3, 5] [mg/kg]
CCCCOc1ccc2c3c([nH]c2c1)CC(NC(C)=O)CC3 (stereo not drawn) [Compound 2j, N-(7-n-butyloxy-1,3,4,9-tetrahydro-2H-carbazol-2-yl)acetamide]	–	–	–	0.57	0.51
CC(=O)NC1CCc2c([nH]c3cc(O)ccc23)C1 (stereo not drawn) [Compound 2k, N-(1,3,4,9-tetrahydro-7-hydroxy-2H-carbazol-2-yl)acetamide]	–	–	–	> 125	> 125
CCCOc1ccc2c3c([nH]c2c1)CC(NC(C)=O)CC3 (stereo not drawn) [Compound 2m]	–	–	–	0.6	0.6
CCCCCOc1ccc2c3c([nH]c2c1)CC(NC(C)=O)CC3 (stereo not drawn) [Compound 2n]	–	–	–	4.3	2.7
CCCCCCOc1ccc2c3c([nH]c2c1)CC(NC(C)=O)CC3 (stereo not drawn) [Compound 2o]	–	–	–	12	14
CC(=O)NC1CCc2c([nH]c3cc(OCc4ccccc4)ccc23)C1 (stereo not drawn) [Compound 2p]	–	–	–	6.5	6.5
CC(=O)NC1CCc2c(n(C)c3ccccc23)C1 (stereo not drawn) [Compound 3L, N-(1,3,4,9-tetrahydro-9-methyl-2H-carbazol-2-yl)acetamide]	–	–	–	11.2	9
Cl.NC1CCc2c([nH]c3ccccc23)C1 (stereo not drawn) [Compound 3a, 2,3,4,9-Tetrahydro-1H-carbazol-2-amine hydrochloride]	–	–	–	8	4
O=CNC1CCc2c([nH]c3ccccc23)C1 (stereo not drawn) [Compound 3b, N-(1,3,4,9-tetrahydro-2H-carbazol-2-yl)formamide]	–	–	–	> 125	84
CCC(=O)NC1CCc2c([nH]c3ccccc23)C1 (stereo not drawn) [Compound 3c, N-(1,3,4,9-tetrahydro-2H-carbazol-2-yl)propanamide]	–	–	–	> 81	67
CCCCC(=O)NC1CCc2c([nH]c3ccccc23)C1 (stereo not drawn) [Compound 3d]	–	–	–	> 81	> 81
CCOC(=O)NC1CCc2c([nH]c3ccccc23)C1 (stereo not drawn) [Compound 3e, (1,3,4,9-tetrahydro-2H-carbazol-2-yl)carbamic acid, ethyl ester]	–	–	–	> 81	40
COC(=O)NC1CCc2c([nH]c3ccccc23)C1 (stereo not drawn) [Compound 3f]	–	–	–	> 81	> 81
CCOC(=O)N(C)C1CCc2c([nH]c3ccccc23)C1 (stereo not drawn) [Compound 3g, Methyl(1,3,4,9-tetrahydro-2H-carbazol-2-yl)carbamic acid, ethyl ester]	–	–	–	27	7.8
CC(=O)N(C)C1CCc2c([nH]c3ccccc23)C1 (stereo not drawn) [Compound 3h, N-(1,3,4,9-tetrahydro-2H-carbazol-2-yl)-N-methylacetamide]	–	–	–	> 125	> 125
CCNC1CCc2c([nH]c3ccccc23)C1.Cl (stereo not drawn) [Compound 3i, N-ethyl-2,3,4,9-tetrahydro-1H-carbazol-2-amine hydrochloride]	–	–	–	27	27
CNC1CCc2c([nH]c3ccccc23)C1.Cl (stereo not drawn) [Compound 3j, 2,3,4,9-Tetrahydro-N-methyl-1H-carbazol-2-amine hydrochloride]	–	–	–	32	12
CN(C)C1CCc2c([nH]c3ccccc23)C1 (stereo not drawn) [Compound 3k]	–	–	–	39	11.4
CN(C)CCC=C1c2ccccc2CCc2ccccc21 [amitriptyline, reference compound]	–	–	–	2.6	1.2
